The record followed here is US10611730B2, “Benzimidazolone and benzothiazolone compounds and their use as AMPA receptor modulators” (Janssen Pharmaceutica NV, priority 2015, dated 2020).

This test addresses TARP γ8 dependent AMPA receptor (GluA1o-g8 fusion channel) (Homo sapiens (Human), UniProt P42261+Q8WXS5). Put plainly: Calcium flux assay (FLIPR), HEK293 cells expressing GRIA1o-CACNG8 fusion. It counts as cell-based. The conditions noted are these: inhibition of calcium flux after 15 μM glutamate, read-out: GluR1-γ8 pIC50 (converted). The procedure, abridged: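 Stable HEK293 clone expressing GluA1o-γ8 fusion (1:1 stoichiometry), loaded with Calcium-5/6 dye plus test compound; glutamate-evoked fluorescence normalized to control wells. Concentration-response fitted to four-parameter logistic, midpoint taken as inhibitory potency.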
For orientation: Calcium assays in cells follow changes in intracellular calcium, usually with a dye or a luminescent sensor.

Chain of TARP γ8 dependent AMPA receptor (GluA1o-g8 fusion channel) (P42261 other isoform, or with tags, fused parts or gaps): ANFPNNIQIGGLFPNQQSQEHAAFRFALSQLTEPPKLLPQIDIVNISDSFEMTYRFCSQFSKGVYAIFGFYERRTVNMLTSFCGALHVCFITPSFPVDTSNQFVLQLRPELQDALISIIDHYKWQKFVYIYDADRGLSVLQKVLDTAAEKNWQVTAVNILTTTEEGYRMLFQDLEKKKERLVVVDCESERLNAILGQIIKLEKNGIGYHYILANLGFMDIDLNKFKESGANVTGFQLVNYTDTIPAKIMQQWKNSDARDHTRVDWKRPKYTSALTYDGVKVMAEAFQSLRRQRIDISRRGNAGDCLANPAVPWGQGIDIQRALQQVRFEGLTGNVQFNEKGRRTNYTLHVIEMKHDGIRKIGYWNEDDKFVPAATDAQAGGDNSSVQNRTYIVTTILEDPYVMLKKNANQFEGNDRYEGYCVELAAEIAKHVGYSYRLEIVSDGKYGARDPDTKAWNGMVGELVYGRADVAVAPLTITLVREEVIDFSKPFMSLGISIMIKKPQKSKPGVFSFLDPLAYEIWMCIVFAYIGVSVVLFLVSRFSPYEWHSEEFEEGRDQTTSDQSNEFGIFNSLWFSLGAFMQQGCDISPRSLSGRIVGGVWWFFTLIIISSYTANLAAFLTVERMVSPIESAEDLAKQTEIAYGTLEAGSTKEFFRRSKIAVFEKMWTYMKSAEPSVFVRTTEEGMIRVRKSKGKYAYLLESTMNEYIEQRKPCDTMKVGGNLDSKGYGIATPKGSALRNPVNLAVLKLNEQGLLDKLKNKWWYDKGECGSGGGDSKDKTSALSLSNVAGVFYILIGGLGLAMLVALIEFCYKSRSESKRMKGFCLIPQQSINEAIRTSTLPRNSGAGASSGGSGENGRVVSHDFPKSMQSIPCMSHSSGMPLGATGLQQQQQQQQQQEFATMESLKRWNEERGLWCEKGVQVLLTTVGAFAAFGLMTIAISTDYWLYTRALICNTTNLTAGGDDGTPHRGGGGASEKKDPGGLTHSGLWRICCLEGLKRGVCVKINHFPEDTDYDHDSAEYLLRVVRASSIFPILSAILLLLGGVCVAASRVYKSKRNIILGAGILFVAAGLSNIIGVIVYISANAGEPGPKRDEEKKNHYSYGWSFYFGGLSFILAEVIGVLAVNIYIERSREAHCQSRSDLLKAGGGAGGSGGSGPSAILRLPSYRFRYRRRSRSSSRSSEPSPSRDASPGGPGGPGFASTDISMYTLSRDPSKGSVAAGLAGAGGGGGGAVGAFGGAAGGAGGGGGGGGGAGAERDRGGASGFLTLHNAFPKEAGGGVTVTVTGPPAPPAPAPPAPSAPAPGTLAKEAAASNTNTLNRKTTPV

`COCCn1cc(-c2cccc(Cl)c2-c2ccc3[nH]c(=O)[nH]c3c2)cn1` [Example 172, 5-[2-Chloro-6-[1-(2-methoxyethyl)pyrazol-4-yl]phenyl]-1,3-dihydrobenzimidazol-2-one]: the IC50 is 2000 nM. Consider `Cc1c(-c2ccc3[nH]c(=O)[nH]c3c2)cccc1-c1nnc(C(F)(F)F)o1` [Example 198, 5-[2-Methyl-3-[5-(trifluoromethyl)-1,3,4-oxadiazol-2-yl]phenyl]-1,3-dihydrobenzimidazol-2-one], for which the IC50 is 20 nM. Take `O=c1[nH]c2ccc(-c3cccc(CN4CCOC(C(F)(F)F)C4)c3Cl)cc2[nH]1` (racemic) [Example 144, (±)-5-[2-Chloro-3-[[2-(trifluoromethyl)morpholin-4-yl]methyl]phenyl]-1,3-dihydrobenzimidazol-2-one]: the IC50 is 126 nM. Turning to `CC(C)(C)Oc1cccc(Cl)c1-c1ccc2[nH]c(=O)[nH]c2c1` [Example 116, 5-(2-tert-Butoxy-6-chloro-phenyl)-1,3-dihydrobenzimidazol-2-one], the IC50 is 158 nM. The figure for `Cc1c(-c2ccc3[nH]c(=O)sc3c2)cccc1-c1nc(C2CC2)no1` [Example 202, 6-[3-(3-Cyclopropyl-1,2,4-oxadiazol-5-yl)-2-methyl-phenyl]-3H-1,3-benzothiazol-2-one] is 3980 nM; for `O=c1[nH]c2ccc(-c3c(Cl)ccc(-c4nnco4)c3Cl)cc2[nH]1` [Example 192, 5-[2,6-Dichloro-3-(1,3,4-oxadiazol-2-yl)phenyl]-1,3-dihydrobenzimidazol-2-one] it is 631 nM.

In the case of `CC(C)Oc1cccc(OC(F)(F)F)c1-c1ccc2[nH]c(=O)[nH]c2c1` [Example 88, 5-[2-Isopropoxy-6-(trifluoromethoxy)phenyl]-1,3-dihydrobenzimidazol-2-one], the IC50 was 7.94 nM. For `Cc1cccc(-c2ccc3[nH]c(=O)[nH]c3c2)c1Cl` [Example 64, 5-(2-Chloro-3-methyl-phenyl)-1,3-dihydrobenzimidazol-2-one], the IC50 was 100 nM. As for `O=C(c1ccc(Cl)c(-c2ccc3[nH]c(=O)[nH]c3c2)c1)N1CCCCC1` [Example 85, 5-[2-Chloro-5-(piperidine-1-carbonyl)phenyl]-1,3-dihydrobenzimidazol-2-one], the IC50 was 5010 nM. With `Cc1c(CN2CCN(C(=O)OC(C)(C)C)CC2)cccc1-c1ccc2[nH]c(=O)[nH]c2c1` [Example 155, tert-Butyl 4-[[2-methyl-3-(2-oxo-1,3-dihydrobenzimidazol-5-yl)phenyl]methyl]piperazine-1-carboxylate], the IC50 is 316 nM. As for `O=c1[nH]c2ccc(-c3ccccc3-c3ccccc3)cc2[nH]1` [Example 5, 5-(2-Phenylphenyl)-1,3-dihydrobenzimidazol-2-one], the IC50 was 100 nM. The figure for `Cc1c(-c2ccc3[nH]c(=O)[nH]c3c2)cccc1-c1nc(C(F)(F)F)no1` [Example 205, 5-[2-Methyl-3-[3-(trifluoromethyl)-1,2,4-oxadiazol-5-yl]phenyl]-1,3-dihydrobenzimidazol-2-one] is 39.8 nM; for `O=c1[nH]c2ccc(-c3c(Cl)cccc3Cl)cc2[nH]1` [Example 49, 5-(2,6-Dichlorophenyl)-1,3-dihydrobenzimidazol-2-one] it is 63.1 nM; for `O=C(Nc1ccccc1)c1ccc(Cl)c(-c2ccc3[nH]c(=O)[nH]c3c2)c1` [Example 83, 4-Chloro-3-(2-oxo-1,3-dihydrobenzimidazol-5-yl)-N-phenyl-benzamide] it is 2510 nM. `N#CCc1ccc(Cl)c(-c2ccc3[nH]c(=O)[nH]c3c2)c1Cl` [Example 131, 2-[2,4-Dichloro-3-(2-oxo-1,3-dihydrobenzimidazol-5-yl)phenyl]acetonitrile]: the IC50 was 2000 nM. As to `O=c1[nH]c2ccc(-c3ccccc3Br)cc2[nH]1` [Example 35, 5-(2-Bromophenyl)-1,3-dihydrobenzimidazol-2-one], the IC50 was 251 nM. The figure for `Cc1cccc(C(F)(F)F)c1-c1ccc2[nH]c(=O)[nH]c2c1` [Example 57, 5-[2-Methyl-6-(trifluoromethyl)phenyl]-1,3-dihydrobenzimidazol-2-one] is 631 nM; for `O=c1[nH]c2ccc(-c3ccccc3C(F)(F)F)cc2[nH]1` [Example 4, 5-[2-(Trifluoromethyl)phenyl]-1,3-dihydrobenzimidazol-2-one] it is 501 nM. In the case of `COC(=O)c1ccc(Cl)c(-c2ccc3[nH]c(=O)[nH]c3c2)c1` [Example 44, Methyl 4-chloro-3-(2-oxo-1,3-dihydrobenzimidazol-5-yl)benzoate], the IC50 was 316 nM. With `N#CCOc1cccc(Cl)c1-c1ccc2[nH]c(=O)[nH]c2c1` [Example 97, 2-[3-Chloro-2-(2-oxo-1,3-dihydrobenzimidazol-5-yl)phenoxy]acetonitrile], the IC50 is 316 nM. The figure for `COC(=O)c1cccc(-c2ccc3[nH]c(=O)[nH]c3c2)c1Cl` [Example 43, Methyl 2-chloro-3-(2-oxo-1,3-dihydrobenzimidazol-5-yl)benzoate] is 31.6 nM; for `CC(C)Oc1cccc(OC(C)C)c1-c1ccc2[nH]c(=O)[nH]c2c1` [Example 107, 5-(2,6-Diisopropoxyphenyl)-1,3-dihydrobenzimidazol-2-one] it is 63.1 nM.

On to `O=c1[nH]c2ccc(-c3c(Cl)cccc3OCC3CC3)cc2[nH]1` [Example 92, 5-[2-Chloro-6-(cyclopropylmethoxy)phenyl]-1,3-dihydrobenzimidazol-2-one], for which the IC50 was 10 nM.

Regarding `O=c1[nH]c2ccc(-c3c(OCC4CC4)cccc3OC(F)(F)F)cc2[nH]1` [Example 89, 5-[2-(Cyclopropylmethoxy)-6-(trifluoromethoxy)phenyl]-1,3-dihydrobenzimidazol-2-one], the IC50 was 3.98 nM.

For the molecule `COc1cccc(OC(C)C(F)(F)F)c1-c1ccc2[nH]c(=O)[nH]c2c1` (racemic) [Example 121, (±)-5-[2-Methoxy-6-(2,2,2-trifluoro-1-methyl-ethoxy)phenyl]-1,3-dihydrobenzimidazol-2-one], the IC50 is 158 nM.

Consider `O=Cc1cccc(F)c1-c1ccc2[nH]c(=O)[nH]c2c1` [Example 27, 3-Fluoro-2-(2-oxo-1,3-dihydrobenzimidazol-5-yl)benzaldehyde], for which the IC50 was 1580 nM. Take `CC(C)Oc1ccc(C(F)(F)F)cc1-c1ccc2[nH]c(=O)[nH]c2c1` [Example 22, 5-[2-Isopropoxy-5-(trifluoromethyl)phenyl]-1,3-dihydrobenzimidazol-2-one]: the IC50 is 316 nM.

As to `O=c1[nH]c2ccc(-c3cccc(-c4nnc(C5CC5)o4)c3Cl)cc2[nH]1` [Example 196, 5-[2-Chloro-3-(5-cyclopropyl-1,3,4-oxadiazol-2-yl)phenyl]-1,3-dihydrobenzimidazol-2-one], the IC50 is 316 nM.

Consider `Cc1c(C(=O)N2CCOCC2)cccc1-c1ccc2[nH]c(=O)[nH]c2c1` [Example 82, 5-[2-Methyl-3-(morpholine-4-carbonyl)phenyl]-1,3-dihydrobenzimidazol-2-one], for which the IC50 is 5010 nM. The figure for `Cc1c(-c2ccc3[nH]c(=O)sc3c2)cccc1-c1ncon1` [Example 207, 6-[2-Methyl-3-(1,2,4-oxadiazol-3-yl)phenyl]-3H-1,3-benzothiazol-2-one] is 126 nM.
